In brackets after ≈: the same amount, converted by molar mass. Activity calls are given as the source filed them. The rule behind the calls is not given here.
What was measured:
Escherichia coli [1] = test: Antibacterial activity against Escherichia coli CCUGT incubated for 18 to 24 hrs by CLSI based microdilution broth method; type: functional; conditions: time 18-24 hrs
Klebsiella pneumoniae [2] = test: Antibacterial activity against Klebsiella pneumoniae ATCC 13833 incubated for 18 to 24 hrs by CLSI based microdilution broth method; type: functional; conditions: time 18-24 hrs
Acinetobacter baumannii [3] = test: Antibacterial activity against Acinetobacter baumannii ATCC 17978 incubated for 18 to 24 hrs by CLSI based microdilution broth method; type: functional; conditions: time 18-24 hrs; for MIC: Acinetobacter baumannii, ATCC 17978
Pseudomonas aeruginosa [4] = test: Antibacterial activity against Pseudomonas aeruginosa ATCC 27853 incubated for 18 to 24 hrs by CLSI based microdilution broth method; type: functional; conditions: time 18-24 hrs; for MIC: Pseudomonas aeruginosa, ATCC 27853
Escherichia coli [5] = test: Synergistic antibacterial activity against Escherichia coli CCUGT incubated for 18 to 24 hrs in presence of colistin by CLSI based microdilution broth method; type: functional; conditions: time 18-24 hrs
Escherichia coli [6] = test: Synergistic antibacterial activity against Escherichia coli CCUGT assessed as potentiation fold by measuring MIC to MAC ratio incubated for 18 to 24 hrs in presence of colistin by CLSI based microdilution broth method; type: functional; conditions: time 18-24 hrs
Acinetobacter baumannii [7] = test: Synergistic antibacterial activity against Acinetobacter baumannii ATCC 17978 incubated for 18 to 24 hrs in presence of colistin by CLSI based microdilution broth method; type: functional; conditions: time 18-24 hrs
Acinetobacter baumannii [8] = test: Synergistic antibacterial activity against Acinetobacter baumannii ATCC 17978 assessed as potentiation fold by measuring MIC to MAC ratio incubated for 18 to 24 hrs in presence of colistin by CLSI based microdilution broth method; type: functional; conditions: time 18-24 hrs
Bacillus subtilis [9] = test: Antibacterial activity against Bacillus subtilis ATCC 6633 incubated for 18 to 24 hrs by CLSI based microdilution broth method; type: functional; conditions: time 18-24 hrs
Enterococcus faecalis [10] = test: Antibacterial activity against Enterococcus faecalis ATCC 19433 incubated for 18 to 24 hrs by CLSI based microdilution broth method; type: functional; conditions: time 18-24 hrs
Streptococcus pyogenes [11] = test: Antibacterial activity against Streptococcus pyogenes ATCC 12344 incubated for 18 to 24 hrs by CLSI based microdilution broth method; type: functional; conditions: time 18-24 hrs
Staphylococcus aureus [12] = test: Antibacterial activity against Staphylococcus aureus ATCC 25923 incubated for 18 to 24 hrs by CLSI based microdilution broth method; type: functional; conditions: time 18-24 hrs
Escherichia coli [13] = test: Antibacterial activity against Escherichia coli CCUGT at 256 ug/ml incubated for 18 to 24 hrs by CLSI based microdilution broth method; type: functional, organism-based; conditions: dose 256.0 µg/ml, time 18-24 hrs
Klebsiella pneumoniae [14] = test: Antibacterial activity against Klebsiella pneumoniae ATCC 13833 at 256 ug/ml incubated for 18 to 24 hrs by CLSI based microdilution broth method; type: functional, organism-based; conditions: dose 256.0 µg/ml, time 18-24 hrs
Acinetobacter baumannii [15] = test: Antibacterial activity against Acinetobacter baumannii ATCC 17978 at 256 ug/ml incubated for 18 to 24 hrs by CLSI based microdilution broth method; type: functional, organism-based; conditions: dose 256.0 µg/ml, time 18-24 hrs
Pseudomonas aeruginosa [16] = test: Antibacterial activity against Pseudomonas aeruginosa ATCC 27853 at 256 ug/ml incubated for 18 to 24 hrs by CLSI based microdilution broth method; type: functional, organism-based; conditions: dose 256.0 µg/ml, time 18-24 hrs
Klebsiella pneumoniae [17] = test: Synergistic antibacterial activity against Klebsiella pneumoniae ATCC 13833 incubated for 18 to 24 hrs in presence of colistin by CLSI based microdilution broth method; type: functional; conditions: time 18-24 hrs
Klebsiella pneumoniae [18] = test: Synergistic antibacterial activity against Klebsiella pneumoniae ATCC 13833 assessed as potentiation fold by measuring MIC to MAC ratio incubated for 18 to 24 hrs in presence of colistin by CLSI based microdilution broth method; type: functional; conditions: time 18-24 hrs
Pseudomonas aeruginosa [19] = test: Synergistic antibacterial activity against Pseudomonas aeruginosa ATCC 27853 incubated for 18 to 24 hrs in presence of colistin by CLSI based microdilution broth method; type: functional; conditions: time 18-24 hrs
Pseudomonas aeruginosa [20] = test: Synergistic antibacterial activity against Pseudomonas aeruginosa ATCC 27853 assessed as potentiation fold by measuring MIC to MAC ratio incubated for 18 to 24 hrs in presence of colistin by CLSI based microdilution broth method; type: functional; conditions: time 18-24 hrs
Acinetobacter baumannii [21] = test: Antibacterial activity against Acinetobacter baumannii N50 incubated for 18 to 24 hrs by CLSI based microdilution broth method; type: functional; conditions: time 18-24 hrs
Acinetobacter baumannii [22] = test: Synergistic antibacterial activity against Acinetobacter baumannii N50 incubated for 18 to 24 hrs in presence of colistin by CLSI based microdilution broth method; type: functional; conditions: time 18-24 hrs
Acinetobacter baumannii [23] = test: Synergistic antibacterial activity against Acinetobacter baumannii N50 assessed as potentiation fold by measuring MIC to MAC ratio incubated for 18 to 24 hrs in presence of colistin by CLSI based microdilution broth method; type: functional; conditions: time 18-24 hrs
Bacillus subtilis [24] = test: Antibacterial activity against Bacillus subtilis ATCC 6633 at 256 ug/ml incubated for 18 to 24 hrs by CLSI based microdilution broth method; type: functional, organism-based; conditions: dose 256.0 µg/ml, time 18-24 hrs
Enterococcus faecalis [25] = test: Antibacterial activity against Enterococcus faecalis ATCC 19433 at 256 ug/ml incubated for 18 to 24 hrs by CLSI based microdilution broth method; type: functional, organism-based; conditions: dose 256.0 µg/ml, time 18-24 hrs
Streptococcus pyogenes [26] = test: Antibacterial activity against Streptococcus pyogenes ATCC 12344 at 256 ug/ml incubated for 18 to 24 hrs by CLSI based microdilution broth method; type: functional, organism-based; conditions: dose 256.0 µg/ml, time 18-24 hrs
Staphylococcus aureus [27] = test: Antibacterial activity against Staphylococcus aureus ATCC 25923 at 256 ug/ml incubated for 18 to 24 hrs by CLSI based microdilution broth method; type: functional, organism-based; conditions: dose 256.0 µg/ml, time 18-24 hrs
[28] = Escherichia coli, CCUGT, read-out: MIC
[29] = Klebsiella pneumoniae, ATCC 13833, read-out: MIC

MIC (Escherichia coli [1]; [28])	MIC (Klebsiella pneumoniae [2]; [29])	MIC (Acinetobacter baumannii [3])	MIC (Pseudomonas aeruginosa [4])	MIC (Bacillus subtilis [9])	MIC (Enterococcus faecalis [10])	MIC (Streptococcus pyogenes [11])	MIC (Staphylococcus aureus [12])	MIC (Acinetobacter baumannii [21])	SMILES	MAC (Escherichia coli [5])	Ratio (Escherichia coli [6])	MAC (Acinetobacter baumannii [7])	Ratio (Acinetobacter baumannii [8])	Activity (Escherichia coli [13])	Activity (Klebsiella pneumoniae [14])	Activity (Acinetobacter baumannii [15])	Activity (Pseudomonas aeruginosa [16])	MAC (Pseudomonas aeruginosa [19])	MAC (Acinetobacter baumannii [22])	Ratio (Acinetobacter baumannii [23])	other results
8 µg/mL (≈ 10.1 µM)	16 µg/mL (≈ 20.3 µM)	64 µg/mL (≈ 81.1 µM)	128 µg/mL (≈ 162 µM)						CCNC(=N)NCCCCCCN(CCCCCCNC(=N)NCC1CC1)C(=O)N(CCCCCCNC(=N)NCC)CCCCCCNC(=N)NCC1CC1	8 µg/mL	1	4 µg/mL	16								
> 256 µg/mL	> 256 µg/mL	> 64 µg/mL	> 256 µg/mL					> 64 µg/mL	N=C(N)NCCCCCCCCN(CCCCCCCCNC(=N)NCC1CC1)C(=O)NC(=N)NCCCCCCCCNCCCCCCCCNC(=N)NCC1CC1	0.5 µg/mL	>512	0.125 µg/mL	>256					2 µg/mL	0.5 µg/mL	>128	MAC (Klebsiella pneumoniae [17]): 1 µg/mL; Ratio (Klebsiella pneumoniae [18]): >256; Ratio (Pseudomonas aeruginosa [20]): >128
2 µg/mL (≈ 2.35 µM)	4 µg/mL (≈ 4.71 µM)	16 µg/mL (≈ 18.8 µM)	64 µg/mL (≈ 75.4 µM)					64 µg/mL (≈ 75.4 µM)	CCNC(=N)NCCCCCCCCN(CCCCCCCCNC(=N)NCC)C(=O)N(CCCCCCCCNC(=N)NCC)CCCCCCCCNC(=N)NCC			0.5 µg/mL	32						0.25 µg/mL	256	
32 µg/mL	32 µg/mL	64 µg/mL	> 256 µg/mL	8 µg/mL	16 µg/mL	8 µg/mL	2 µg/mL	32 µg/mL	O=C(O)C(F)(F)F.[N-]=[N+]=NCCCCCCCCN(CCCCCCCCNC(=N)N)C(=O)N(CCCCCCCCN=[N+]=[N-])CCCCCCCCNC(=N)N	32 µg/mL	1	64 µg/mL	1					16 µg/mL	32 µg/mL	1	MAC (Klebsiella pneumoniae [17]): 2 µg/mL; Ratio (Klebsiella pneumoniae [18]): 16; Ratio (Pseudomonas aeruginosa [20]): >16
				128 µg/mL	128 µg/mL	64 µg/mL	32 µg/mL		CNC(=N)NCCCCCCCCNC(N)=O.O=C(O)C(F)(F)F					inactive	inactive	inactive	inactive				
				64 µg/mL	128 µg/mL	64 µg/mL	64 µg/mL		CC(C)NC(=N)NCCCCCCCCNC(N)=O.O=C(O)C(F)(F)F					inactive	inactive	inactive	inactive				
4 µg/mL (≈ 4.46 µM)	4 µg/mL (≈ 4.46 µM)	64 µg/mL (≈ 71.3 µM)	128 µg/mL (≈ 143 µM)					64 µg/mL (≈ 71.3 µM)	N=C(NCCCCCCCCN(CCCCCCCCNC(=N)NCC1CC1)C(=O)N(CCCCCCNC(=N)NCC1CC1)CCCCCCNC(=N)NCC1CC1)NCC1CC1			4 µg/mL	16					128 µg/mL	2 µg/mL	32	Ratio (Pseudomonas aeruginosa [20]): 1

Continued, molecule first:

SMILES	MIC (Escherichia coli [1]; [28])	MIC (Klebsiella pneumoniae [2]; [29])	MIC (Acinetobacter baumannii [3])	MIC (Pseudomonas aeruginosa [4])	MIC (Bacillus subtilis [9])	MIC (Enterococcus faecalis [10])	MIC (Streptococcus pyogenes [11])	MIC (Staphylococcus aureus [12])	MIC (Acinetobacter baumannii [21])	MAC (Escherichia coli [5])	Ratio (Escherichia coli [6])	MAC (Acinetobacter baumannii [7])	Ratio (Acinetobacter baumannii [8])	Activity (Escherichia coli [13])	Activity (Klebsiella pneumoniae [14])	Activity (Acinetobacter baumannii [15])	Activity (Pseudomonas aeruginosa [16])	MAC (Pseudomonas aeruginosa [19])	MAC (Acinetobacter baumannii [22])	Ratio (Acinetobacter baumannii [23])	other results
CCNC(=N)NCCCCCCCCNC(N)=O.O=C(O)C(F)(F)F					64 µg/mL	128 µg/mL	64 µg/mL	32 µg/mL						inactive	inactive	inactive	inactive				
N=C(N)NCCCCCCN(CCCCCCNC(=N)NCC1CC1)C(=O)N(CCCCCCNC(=N)N)CCCCCCNC(=N)NCC1CC1	16 µg/mL (≈ 21.8 µM)	32 µg/mL (≈ 43.6 µM)	128 µg/mL (≈ 175 µM)	256 µg/mL (≈ 349 µM)					> 256 µg/mL	1 µg/mL	16	1 µg/mL	128					8 µg/mL	>256 µg/mL	1	MAC (Klebsiella pneumoniae [17]): 16 µg/mL; Ratio (Klebsiella pneumoniae [18]): 2; Ratio (Pseudomonas aeruginosa [20]): 32
[N-]=[N+]=NCCCCCCCCN(CCCCCCCCNC(c1ccccc1)(c1ccccc1)c1ccccc1)C(=O)N(CCCCCCCCN=[N+]=[N-])CCCCCCCCNC(c1ccccc1)(c1ccccc1)c1ccccc1														inactive	inactive	inactive	inactive				Activity (Bacillus subtilis [24]): inactive; Activity (Enterococcus faecalis [25]): inactive; Activity (Streptococcus pyogenes [26]): inactive; Activity (Staphylococcus aureus [27]): inactive
N=C(N)NCCCCCCCCN(CCCCCCCCN)C(=O)N(CCCCCCCCN)CCCCCCCCNC(=N)NCC1CC1									32 µg/mL (≈ 45.3 µM)	0.5 µg/mL	64	8 µg/mL	8					8 µg/mL	4 µg/mL	8	MIC (Escherichia coli [1]): 32 µg/mL (≈ 45.3 µM); MIC (Klebsiella pneumoniae [2]): 64 µg/mL (≈ 90.5 µM); MAC (Acinetobacter baumannii [3]): 64 µg/mL; MAC (Pseudomonas aeruginosa [4]): 128 µg/mL; MAC (Klebsiella pneumoniae [17]): 32 µg/mL; Ratio (Klebsiella pneumoniae [18]): 2; Ratio (Pseudomonas aeruginosa [20]): 16
N=C(NCCCCCCNC(N)=O)NCC1CC1.O=C(O)C(F)(F)F					128 µg/mL	128 µg/mL	128 µg/mL	128 µg/mL						inactive	inactive	inactive	inactive				

From ChEMBL document CHEMBL5500347, “An update on antibacterial AlkylGuanidino Ureas: Design of new derivatives, synergism with colistin and data analysis of the whole library” (2024)
